Kd data for one compound are collected here from ChEMBL document CHEMBL3638641, “Disubstituted heteroaryl-fused pyridines” (2014).

By Kd is commonly meant the free concentration of one partner at which half of the binding sites on the other are occupied at equilibrium, for simple one-to-one binding. Higher therefore signals a looser complex.

Experiment [1] has as its target T1, Orexin receptor type 2 (Homo sapiens, UniProt O43614).
T1 sequence (O43614 whole entry): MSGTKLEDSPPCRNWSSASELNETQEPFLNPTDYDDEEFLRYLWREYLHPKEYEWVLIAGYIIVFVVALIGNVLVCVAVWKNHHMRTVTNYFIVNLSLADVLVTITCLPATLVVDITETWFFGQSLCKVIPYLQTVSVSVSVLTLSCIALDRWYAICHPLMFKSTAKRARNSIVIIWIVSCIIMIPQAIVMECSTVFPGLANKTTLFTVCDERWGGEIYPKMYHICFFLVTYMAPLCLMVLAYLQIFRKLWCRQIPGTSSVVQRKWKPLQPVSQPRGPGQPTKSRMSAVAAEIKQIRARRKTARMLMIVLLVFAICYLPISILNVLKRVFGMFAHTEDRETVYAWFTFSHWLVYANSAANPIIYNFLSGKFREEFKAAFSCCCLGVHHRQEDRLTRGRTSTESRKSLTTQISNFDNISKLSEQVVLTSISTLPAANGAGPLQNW
In words: (§1) Radioligand Binding Assay I : For crude cell membrane preparations, cells (CHO, Chinese hamster ovary or HEK, human embryonic kidney) expressing human orexin 1 or human orexin 2 receptors, were washed with HEPES (10 mM, pH 7.5), scraped off the culture plates with the same buffer, and centrifuged at 4 C for 5 min at 2500 x g. The cell pellet was either stored at -80 C or used directly. Before the experiments, cell membranes were re-suspended in binding assay buffer (10 mM HEPES, 0.5% (w/v) bovine serum albumin, pH 7.5) by homogenisation with a Polytron homogeniser at 50 Hz for 20 s. In competition experiments, cell homogenates (150μΙ) were incubated in assay buffer (10 mM HEPES, pH 7.5, 0.5 % (w/v) bovine serum albumin, 5 mM MgCI2, 1 mMCaCI2, and tween 0.05%) for 1 h at room temperature with about 100 pM of the radioligand ([125l]orexin A, 2100 Ci/mmole, 50 μΙ), and with various concentrations of compounds of the invention (50 μΙ) in triplicates.

Experiment [2] has as its target T2, Orexin/Hypocretin receptor type 1 (Homo sapiens, UniProt O43613).
T2 sequence (O43613 whole entry): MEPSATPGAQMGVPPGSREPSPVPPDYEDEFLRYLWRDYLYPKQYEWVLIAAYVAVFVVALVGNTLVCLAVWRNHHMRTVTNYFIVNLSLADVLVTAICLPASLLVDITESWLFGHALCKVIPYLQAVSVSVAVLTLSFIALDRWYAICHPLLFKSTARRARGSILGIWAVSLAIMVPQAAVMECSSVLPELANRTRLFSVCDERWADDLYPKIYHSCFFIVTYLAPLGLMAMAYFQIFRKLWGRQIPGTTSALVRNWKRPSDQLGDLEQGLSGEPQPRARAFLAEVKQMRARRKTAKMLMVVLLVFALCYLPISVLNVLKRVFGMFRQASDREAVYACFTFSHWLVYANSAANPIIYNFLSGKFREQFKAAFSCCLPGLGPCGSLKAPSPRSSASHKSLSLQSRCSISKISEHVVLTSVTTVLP
The experiment is described as §1.

SMILES strings stand for the structures.

As for `C[C@H](NC(=O)COc1cc(C(F)(F)F)c2c(-c3cccc(Cl)c3)nn(C)c2n1)c1ccccc1`, the Kd worked out at 477 nM in experiment [1] and 114 nM in experiment [2].
